Test results: paper PMC10281575, “PfCRT mutations conferring piperaquine resistance in falciparum malaria shape the kinetics of quinoline drug binding and transport” (PLOS Pathogens, 2023)
Several values for one entry are separate records, joined by “and”; a condition that tells them apart may be missing. Equal values may be shown once.

Target: T1, PfCRT^Dd2 (Plasmodium falciparum, UniProt Q8IBZ9, A220S/I356T/K76T/M74I/N326S/N75E/Q271E/R371I)
T1 sequence (Q8IBZ9 1-424 M74I/N75E/K76T/A220S/Q271E/N326S/I356T/R371I): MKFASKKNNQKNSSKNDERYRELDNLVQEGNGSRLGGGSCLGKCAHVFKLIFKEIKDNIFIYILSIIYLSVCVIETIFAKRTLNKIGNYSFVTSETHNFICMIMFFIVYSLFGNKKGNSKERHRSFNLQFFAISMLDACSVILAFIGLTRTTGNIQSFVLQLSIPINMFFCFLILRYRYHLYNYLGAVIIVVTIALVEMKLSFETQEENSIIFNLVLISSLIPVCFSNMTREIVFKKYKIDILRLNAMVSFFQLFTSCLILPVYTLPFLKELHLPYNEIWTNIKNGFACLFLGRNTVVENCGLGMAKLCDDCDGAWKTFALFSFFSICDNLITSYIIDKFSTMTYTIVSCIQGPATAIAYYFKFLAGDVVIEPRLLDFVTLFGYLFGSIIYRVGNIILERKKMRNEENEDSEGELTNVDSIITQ
Experiment: Competition kinetics of drug transport (radiolabeled substrate plus cold inhibitor), PfCRT^Dd2-expressing oocytes
Assay type: cell-based
Parameters: expressed in transfected cells; host or cells: Xenopus laevis oocytes injected with in vitro transcribed RNA (pSP64T)
Conditions: single replicates
Description: The experimental procedure and the data analysis were as described above.
The difference between the two models lies in the value of α, a parameter describing how much the affinity for the substrate changes when the inhibitor is already bound, and vice versa. […] The resulting Vmax,app values and the Vmax,app/KM,app ratios were plotted as a function of the inhibitor concentration (Fig 5A).
Drug transport assays were performed as previously described. Briefly, measurements of radiolabeled drug uptake were made over 1 h, unless otherwise specified. […] Where specified, one or more unlabeled drugs were also present at the indicated concentrations. […] The uptake assays were terminated by removing the oocytes from the reaction medium and washing them three times with 2 mL of ice-cold ND96 buffer. Each oocyte was transferred to a separate scintillation vial and lysed by the addition of 200 μL of a 5% SDS solution. The radioactivity in the sample was measured using a liquid scintillation analyser Tri-Carb 4910 TR (PerkinElmer). Water-injected oocytes were analyzed in parallel as a negative control. The buffer from each condition was measured in duplicate in parallel to each experiment to transform counts per minute into pmol of drug. Drug uptake attributable to PfCRT was determined by subtracting the background uptake from water-injected oocytes from that of PfCRT-expressing oocytes. In all cases, at least three independent experiments were performed on oocytes from different frogs, and for each condition in an experiment, measurements were made from 10 oocytes per treatment.
The following equations were adopted from Segel (1993), and the reader is referred to that text for the assumptions made in the author’s approach in the derivation of each equation [31]. The concentration of substrate is denoted as [S1] and the concentration of the inhibiting substrate is denoted as [S2]. KS1 and KS2 are the dissociation constants for the respective substrate-protein complexes.
Analyses of the kinetic data were performed using SigmaPlot version 13.0 and Python. The drug competition models were globally fit to the kinetic data using the least-squares method and ranked according to their corrected Akaike information criterion difference (ΔAICC) and their Akaike weight, using Python. The two top-ranked models were compared using an F-test.
This factor reflects how much the affinity of the transporter for one drug changes when the other drug is already bound in the protein cavity. In the former model, α > 0 and α ≠ 1. In the latter model, it could be thought of as if α = 1. Because of this, discriminating between the two models also means determining the value of α. In Mixed-type (Partial) inhibition, the apparent maximal velocity (Vmax,app) is given by Eq 22, Vmax,app=Vmax(1+β[S2]/αKS2)/(1+[S2]/αKS2) (Eq 22)
Vmax,app is the maximal rate of substrate transport at a certain inhibitor concentration. The half-maximal inhibitory concentration is given by the term in the denominator different from [S2], which in this case is αKS2. This means that by plotting Vmax,app as a function of [S2], the value of αKS2 can be derived after fitting the curve to Eq 23.
The half-maximal inhibitory concentration derived from this hyperbolic equation is equal to KS2. By plotting Vmax,app/KM,app as a function of [S2], one can derive KS2 after fitting the curve to Eq 25. The value of α can then be calculated dividing αKS2 by KS2.

Structure (SMILES): CCN(CC)CCCC(C)Nc1ccnc2cc(Cl)ccc12 (stereo not drawn) [CQ, chloroquine]
- PfCRTDd2-mediated CQ transport 10 µM CQ (0 µM PPQ): 0.87 pmol oocyte-1 h-1 and 1.33 pmol oocyte-1 h-1 and 1.00 pmol oocyte-1 h-1 and 0.95 pmol oocyte-1 h-1
- PfCRTDd2-mediated CQ transport 10 µM CQ (50 µM PPQ): 1.41 pmol oocyte-1 h-1 and 1.10 pmol oocyte-1 h-1 and 0.61 pmol oocyte-1 h-1
- PfCRTDd2-mediated CQ transport 10 µM CQ (125 µM PPQ): 0.68 pmol oocyte-1 h-1 and 1.41 pmol oocyte-1 h-1 and 1.40 pmol oocyte-1 h-1
- PfCRTDd2-mediated CQ transport 10 µM CQ (200 µM PPQ): 0.89 pmol oocyte-1 h-1 and 0.30 pmol oocyte-1 h-1 and 1.02 pmol oocyte-1 h-1
- PfCRTDd2-mediated CQ transport 10 µM CQ (350 µM PPQ): 1.16 pmol oocyte-1 h-1 and 0.24 pmol oocyte-1 h-1 and 0.95 pmol oocyte-1 h-1
- PfCRTDd2-mediated CQ transport 10 µM CQ (500 µM PPQ): 0.43 pmol oocyte-1 h-1 and 1.04 pmol oocyte-1 h-1 and 0.36 pmol oocyte-1 h-1
- PfCRTDd2-mediated CQ transport 50 µM CQ (0 µM PPQ): 3.90 pmol oocyte-1 h-1 and 4.91 pmol oocyte-1 h-1 and 4.76 pmol oocyte-1 h-1 and 7.49 pmol oocyte-1 h-1 and 10.46 pmol oocyte-1 h-1 and 5.04 pmol oocyte-1 h-1 and 3.98 pmol oocyte-1 h-1
- PfCRTDd2-mediated CQ transport 50 µM CQ (50 µM PPQ): 6.48 pmol oocyte-1 h-1 and 5.07 pmol oocyte-1 h-1 and 3.08 pmol oocyte-1 h-1 and 4.12 pmol oocyte-1 h-1
- PfCRTDd2-mediated CQ transport 50 µM CQ (125 µM PPQ): 4.96 pmol oocyte-1 h-1 and 2.54 pmol oocyte-1 h-1 and 3.07 pmol oocyte-1 h-1
- PfCRTDd2-mediated CQ transport 50 µM CQ (200 µM PPQ): 3.46 pmol oocyte-1 h-1 and 2.63 pmol oocyte-1 h-1 and 3.11 pmol oocyte-1 h-1
- PfCRTDd2-mediated CQ transport 50 µM CQ (350 µM PPQ): 2.38 pmol oocyte-1 h-1 and 2.66 pmol oocyte-1 h-1 and 3.48 pmol oocyte-1 h-1
- PfCRTDd2-mediated CQ transport 50 µM CQ (500 µM PPQ): 2.32 pmol oocyte-1 h-1 and 2.15 pmol oocyte-1 h-1 and 3.29 pmol oocyte-1 h-1
- PfCRTDd2-mediated CQ transport 100 µM CQ (0 µM PPQ): 8.35 pmol oocyte-1 h-1 and 7.99 pmol oocyte-1 h-1 and 8.53 pmol oocyte-1 h-1
- PfCRTDd2-mediated CQ transport 100 µM CQ (50 µM PPQ): 9.49 pmol oocyte-1 h-1 and 7.68 pmol oocyte-1 h-1 and 5.55 pmol oocyte-1 h-1
- PfCRTDd2-mediated CQ transport 100 µM CQ (125 µM PPQ): 5.95 pmol oocyte-1 h-1 and 8.32 pmol oocyte-1 h-1 and 6.55 pmol oocyte-1 h-1
- PfCRTDd2-mediated CQ transport 100 µM CQ (200 µM PPQ): 5.59 pmol oocyte-1 h-1 and 6.01 pmol oocyte-1 h-1 and 5.66 pmol oocyte-1 h-1
- PfCRTDd2-mediated CQ transport 100 µM CQ (350 µM PPQ): 5.36 pmol oocyte-1 h-1 and 3.63 pmol oocyte-1 h-1 and 6.93 pmol oocyte-1 h-1
- PfCRTDd2-mediated CQ transport 100 µM CQ (500 µM PPQ): 4.92 pmol oocyte-1 h-1 and 5.26 pmol oocyte-1 h-1 and 4.17 pmol oocyte-1 h-1
- PfCRTDd2-mediated CQ transport 200 µM CQ (0 µM PPQ): 17.86 pmol oocyte-1 h-1 and 12.77 pmol oocyte-1 h-1 and 15.13 pmol oocyte-1 h-1
- PfCRTDd2-mediated CQ transport 200 µM CQ (50 µM PPQ): 13.29 pmol oocyte-1 h-1 and 13.73 pmol oocyte-1 h-1 and 11.63 pmol oocyte-1 h-1
- PfCRTDd2-mediated CQ transport 200 µM CQ (125 µM PPQ): 10.25 pmol oocyte-1 h-1 and 14.35 pmol oocyte-1 h-1 and 10.52 pmol oocyte-1 h-1
- PfCRTDd2-mediated CQ transport 200 µM CQ (200 µM PPQ): 10.68 pmol oocyte-1 h-1 and 10.09 pmol oocyte-1 h-1 and 9.74 pmol oocyte-1 h-1
- PfCRTDd2-mediated CQ transport 200 µM CQ (350 µM PPQ): 11.39 pmol oocyte-1 h-1 and 6.27 pmol oocyte-1 h-1 and 10.49 pmol oocyte-1 h-1
- PfCRTDd2-mediated CQ transport 200 µM CQ (500 µM PPQ): 7.85 pmol oocyte-1 h-1 and 9.03 pmol oocyte-1 h-1 and 9.31 pmol oocyte-1 h-1
- PfCRTDd2-mediated CQ transport 300 µM CQ (0 µM PPQ): 20.89 pmol oocyte-1 h-1 and 20.25 pmol oocyte-1 h-1 and 8.92 pmol oocyte-1 h-1 and 15.94 pmol oocyte-1 h-1 and 19.02 pmol oocyte-1 h-1
- PfCRTDd2-mediated CQ transport 300 µM CQ (50 µM PPQ): 15.04 pmol oocyte-1 h-1 and 14.02 pmol oocyte-1 h-1 and 15.34 pmol oocyte-1 h-1
- PfCRTDd2-mediated CQ transport 300 µM CQ (125 µM PPQ): 15.92 pmol oocyte-1 h-1 and 14.01 pmol oocyte-1 h-1 and 11.66 pmol oocyte-1 h-1
- PfCRTDd2-mediated CQ transport 300 µM CQ (200 µM PPQ): 11.11 pmol oocyte-1 h-1 and 12.97 pmol oocyte-1 h-1 and 12.36 pmol oocyte-1 h-1
- PfCRTDd2-mediated CQ transport 300 µM CQ (350 µM PPQ): 11.84 pmol oocyte-1 h-1 and 11.95 pmol oocyte-1 h-1 and 8.89 pmol oocyte-1 h-1
- PfCRTDd2-mediated CQ transport 300 µM CQ (500 µM PPQ): 11.31 pmol oocyte-1 h-1 and 9.89 pmol oocyte-1 h-1 and 9.29 pmol oocyte-1 h-1
- PfCRTDd2-mediated CQ transport 400 µM CQ (0 µM PPQ): 20.79 pmol oocyte-1 h-1 and 22.58 pmol oocyte-1 h-1 and 19.58 pmol oocyte-1 h-1 and 16.43 pmol oocyte-1 h-1
- PfCRTDd2-mediated CQ transport 400 µM CQ (50 µM PPQ): 18.68 pmol oocyte-1 h-1 and 19.12 pmol oocyte-1 h-1 and 16.44 pmol oocyte-1 h-1
- PfCRTDd2-mediated CQ transport 400 µM CQ (125 µM PPQ): 13.83 pmol oocyte-1 h-1 and 18.03 pmol oocyte-1 h-1 and 15.59 pmol oocyte-1 h-1
- PfCRTDd2-mediated CQ transport 400 µM CQ (200 µM PPQ): 14.22 pmol oocyte-1 h-1 and 13.47 pmol oocyte-1 h-1 and 13.35 pmol oocyte-1 h-1
- PfCRTDd2-mediated CQ transport 400 µM CQ (350 µM PPQ): 14.38 pmol oocyte-1 h-1 and 9.22 pmol oocyte-1 h-1
- PfCRTDd2-mediated CQ transport 400 µM CQ (500 µM PPQ): 12.77 pmol oocyte-1 h-1 and 10.16 pmol oocyte-1 h-1 and 8.34 pmol oocyte-1 h-1
